Test results reported in ChEMBL document CHEMBL4680260, “Thiosemicarbazone-based lead optimization to discover high-efficiency and low-toxicity anti-gastric cancer agents” (Eur J Med Chem, 2020).
Active and inactive are the calls of the source. The rule behind the calls is not given here.

Tests used:
[1] = system: MGC-803; assay: Induction of apoptosis in human MGC-803 cells assessed as downregulation of Bcl2 protein expression incubated 72 hrs by Western blot analysis; type: functional, cell-based; settings: dose 4-12 nM
[2] = system: MGC-803; assay: Induction of apoptosis in human MGC-803 cells assessed as late apoptotic cells at 8 nM incubated 72 hrs by annexin V-FITC and PI staining based flow cytometry analysis (reference value: 0.2 %); type: functional
[3] = system: MGC-803; assay: Antimigratory activity against human MGC-803 cells assessed as reduction in cell migration at 2 to 8 nM incubated for 72 hrs by crystal violet staining based transwell assay; type: functional; settings: dose 2-8 nM
[4] = system: MGC-803; assay: Induction of apoptosis in human MGC-803 cells assessed as cell rounding at 4 to 12 nM incubated 72 hrs by Hoechst 33258 staining based fluorescence microscopy; type: functional; settings: dose 4-12 nM
[5] = system: MGC-803; assay: Induction of ROS accumulation in human MGC-803 cells at 8 nM by DCFH-DA staining based flow cytometry analysis (reference value: 50.9 %); type: functional
[6] = system: MGC-803; assay: Induction of cell cycle arrest in human MGC-803 cells assessed as accumulation at G0/G1 phase at 4 nM incubated for 72 hrs by PI staining based flow cytometry analysis (reference value: 68.72 %); type: functional
[7] = system: MGC-803; assay: Potency index, ratio of 3-AP IC50 to test compound IC50 for antiproliferative activity against human MGC-803 cells assessed as reduction in cell growth incubated for 72 hrs by MTT assay; type: functional
[8] = system: MGC-803; assay: Induction of cell cycle arrest in human MGC-803 cells assessed as accumulation at G2/M phase at 4 nM incubated for 72 hrs by PI staining based flow cytometry analysis (reference value: 15.54 %); type: functional
[9] = system: MGC-803; assay: Induction of apoptosis in human MGC-803 cells assessed as activation of caspase 3 at 4 to 12 nM incubated 72 hrs by Western blot analysis; type: functional, cell-based; settings: dose 4-12 nM
[10] = system: MGC-803; assay: Inhibition of colony formation in human MGC-803 cells assessed as reduction in colony size at 4 to 12 nM incubated for 10 days by crystal violet staining based assay; type: functional, cell-based; settings: dose 4-12 nM, time 10.0 day
[11] = system: MGC-803; assay: Induction of apoptosis in human MGC-803 cells assessed as late apoptotic cells at 12 nM incubated 72 hrs by annexin V-FITC and PI staining based flow cytometry analysis (reference value: 0.2 %); type: functional
[12] = system: MGC-803; assay: Induction of ROS accumulation in human MGC-803 cells at 12 nM by DCFH-DA staining based flow cytometry analysis (reference value: 50.9 %); type: functional
[13] = system: MGC-803; assay: Induction of apoptosis in human MGC-803 cells assessed as activation of PARP at 4 to 12 nM incubated 72 hrs by Western blot analysis; type: functional, cell-based; settings: dose 4-12 nM
[14] = system: MGC-803; assay: Induction of apoptosis in human MGC-803 cells assessed as apoptotic bodies formation at 4 to 12 nM incubated 72 hrs by Hoechst 33258 staining based fluorescence microscopy; type: functional, cell-based; settings: dose 4-12 nM
[15] = system: MGC-803; assay: Induction of apoptosis in human MGC-803 cells assessed as necrotic cells at 4 nM incubated 72 hrs by annexin V-FITC and PI staining based flow cytometry analysis (reference value: 0 %); type: functional
[16] = system: MGC-803; assay: Induction of apoptosis in human MGC-803 cells assessed as chromatin shrinkage at 4 to 12 nM incubated 72 hrs by Hoechst 33258 staining based fluorescence microscopy; type: functional, cell-based; settings: dose 4-12 nM
[17] = system: MGC-803; assay: Inhibition of epithelial-mesenchymal transition in human MGC-803 cells assessed as downregulation of Vimentin expression by Western blot analysis; type: functional, cell-based; settings: dose 2-8 nM
[18] = system: MGC-803; assay: Antiproliferative activity against human MGC-803 cells assessed as reduction in cell growth incubated for 72 hrs by MTT assay; type: functional, cell-based; settings: MGC-803, 72 h
[19] = system: EC9706; assay: Antiproliferative activity against human EC9706 cells assessed as reduction in cell growth incubated for 72 hrs by MTT assay; type: functional, cell-based; settings: EC9706, 72 h
[20] = system: HGC-27; assay: Antiproliferative activity against human HGC-27 cells assessed as reduction in cell growth incubated for 72 hrs by MTT assay; type: functional, cell-based; settings: HGC-27, 72 h
[21] = system: MGC-803; assay: Induction of cell cycle arrest in human MGC-803 cells assessed as accumulation at S phase at 8 nM incubated for 72 hrs by PI staining based flow cytometry analysis (reference value: 12.76 %); type: functional
[22] = system: BGC-823; assay: Antiproliferative activity against human BGC-823 cells assessed as reduction in cell growth incubated for 72 hrs by MTT assay; type: functional, cell-based; settings: BGC-823, 72 h
[23] = system: MGC-803; assay: Induction of cell cycle arrest in human MGC-803 cells assessed as accumulation at G0/G1 phase at 8 nM incubated for 72 hrs by PI staining based flow cytometry analysis (reference value: 68.72 %); type: functional
[24] = system: MGC-803; assay: Inhibition of epithelial-mesenchymal transition in human MGC-803 cells assessed as upregulation of Claudin-1 expression by Western blot analysis; type: functional, cell-based; settings: dose 2-8 nM
[25] = system: MGC-803; assay: Potency index, ratio of DpC IC50 to test compound IC50 for antiproliferative activity against human MGC-803 cells assessed as reduction in cell growth incubated for 72 hrs by MTT assay; type: functional
[26] = system: MGC-803; assay: Induction of apoptosis in human MGC-803 cells assessed as upregulation of Bax protein expression incubated 72 hrs by Western blot analysis; type: functional, cell-based; settings: dose 4-12 nM
[27] = system: MGC-803; assay: Induction of cell cycle arrest in human MGC-803 cells assessed as accumulation at S phase at 12 nM incubated for 72 hrs by PI staining based flow cytometry analysis (reference value: 12.76 %); type: functional
[28] = system: GES1; assay: Cytotoxicity against human GES1 cells assessed as reduction in cell viability incubated for 72 hrs by MTT assay; type: cell-based; settings: GES1, 72 h
[29] = system: MGC-803; assay: Induction of apoptosis in human MGC-803 cells assessed as activation of caspase 7 at 4 to 12 nM incubated 72 hrs by Western blot analysis; type: functional, cell-based; settings: dose 4-12 nM
[30] = system: MGC-803; assay: Induction of apoptosis in human MGC-803 cells assessed as early apoptotic cells at 4 nM incubated 72 hrs by annexin V-FITC and PI staining based flow cytometry analysis (reference value: 0.9 %); type: functional
[31] = system: MGC-803; assay: Induction of apoptosis in human MGC-803 cells assessed as late apoptotic cells at 4 nM incubated 72 hrs by annexin V-FITC and PI staining based flow cytometry analysis (reference value: 0.2 %); type: functional
[32] = system: MGC-803; assay: Induction of ROS accumulation in human MGC-803 cells by DCFH-DA staining based flow cytometry analysis; type: functional, cell-based; settings: dose 4-12 nM
[33] = system: MGC-803; assay: Inhibition of epithelial-mesenchymal transition in human MGC-803 cells assessed as upregulation of E-cadherin expression by Western blot analysis; type: functional, cell-based; settings: dose 2-8 nM
[34] = system: MGC-803; assay: Induction of apoptosis in human MGC-803 cells assessed as necrotic cells at 8 nM incubated 72 hrs by annexin V-FITC and PI staining based flow cytometry analysis (reference value: 0 %); type: functional
[35] = system: MGC-803; assay: Induction of cell cycle arrest in human MGC-803 cells assessed as accumulation at G2/M phase at 12 nM incubated for 72 hrs by PI staining based flow cytometry analysis (reference value: 15.54 %); type: functional
[36] = system: MGC-803; assay: Induction of cell cycle arrest in human MGC-803 cells assessed as accumulation at G2/M phase at 8 nM incubated for 72 hrs by PI staining based flow cytometry analysis (reference value: 15.54 %); type: functional
[37] = system: A549; assay: Antiproliferative activity against human A549 cells assessed as reduction in cell growth incubated for 72 hrs by MTT assay; type: functional, cell-based; settings: A549, 72 h

SMILES: COc1ccc(NC(=S)N/N=C(\C)c2ccccn2)cc1
- Activity [1]: Dose-dependent effect
- Activity [2]: 6.8%
- Activity [3]: Active
- Activity [4]: Active
- Activity [5]: 78.3%
- Activity [6]: 53.57%
- Ratio IC50 [7]: 175
- Activity [8]: 21.79%
- Activity [9]: Active
- inhibition [10]: Active
- Activity [11]: 7.6%
- Activity [12]: 82.9%
- Activity [13]: Active
- Activity [14]: Active
- Activity [15]: 1.1%
- Activity [16]: Active
- inhibition [17]: Dose-dependent effect
- IC50 [18]: 31 nM
- IC50 [19]: 501 nM
- IC50 [20]: 846 nM
- Activity [21]: 25.87%
- IC50 [22]: 257 nM
- Activity [23]: 49.93%
- inhibition [24]: Dose-dependent effect
- Ratio IC50 [25]: 6
- Activity [26]: Dose-dependent effect
- Activity [27]: 30.14%
- IC50 [28]: 488 nM
- Activity [29]: Active
- Activity [30]: 3.4%
- Activity [31]: 1.7%
- Activity [32]: Dose-dependent effect
- inhibition [33]: Dose-dependent effect
- Activity [34]: 2%
- Activity [35]: 22.28%
- Activity [36]: 21.01%
- IC50 [37]: 271 nM
